What was measured:
Assay in all cases: cells
Assay type in all cases: functional, cell-based, Homo sapiens
COLO-741 = test system: COLO-741
Description: SANGER: Inhibition of human COLO-741 cell growth in a cell viability assay.

SCC-25 = test system: SCC-25;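 also: growth inhibition of SCC-25 cells, measured with a cell viability assay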
Description: SANGER: Inhibition of human SCC-25 cell growth in a cell viability assay.

HSC-2 = test system: HSC-2;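 also: growth inhibition of human HSC-2 cells, read out by a cell viability assay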
Description: SANGER: Inhibition of human HSC-2 cell growth in a cell viability assay.

KYSE-150 cell line = test system: KYSE-150 cell line;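 also: growth inhibition of human KYSE-150 cells, read out with a cell viability assay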
Description: SANGER: Inhibition of human KYSE-150 cell growth in a cell viability assay.

A549 = test system: A549;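 also: growth inhibition of A549 cells, read out with a cell viability assay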
Description: SANGER: Inhibition of human A549 cell growth in a cell viability assay.

ZR-75-30 = test system: ZR-75-30;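 also: growth inhibition of ZR-75-30 cells, measured with a cell viability readout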
Description: SANGER: Inhibition of human ZR-75-30 cell growth in a cell viability assay.

SBC-5 = test system: SBC-5;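 also: cell viability assay read-out, IC50 is the concentration that inhibits growth of the cells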
Description: SANGER: Inhibition of human SBC-5 cell growth in a cell viability assay.

SCC-9 = test system: SCC-9;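 also: Read-out is a cell viability assay, with values giving inhibition of cell growth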
Description: SANGER: Inhibition of human SCC-9 cell growth in a cell viability assay.

OAW-42 = test system: OAW-42;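 also: growth inhibition of OAW-42 cells, read out with a cell viability assay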
Description: SANGER: Inhibition of human OAW-42 cell growth in a cell viability assay.

HCC1954 = test system: HCC1954;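 also: growth inhibition of human HCC1954 cells, read out with a cell viability assay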
Description: SANGER: Inhibition of human HCC1954 cell growth in a cell viability assay.

RMG-I = test system: RMG-I;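 also: growth inhibition of human RMG-I cells, read out with a cell viability assay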
Description: SANGER: Inhibition of human RMG-I cell growth in a cell viability assay.

NCI-H28 = test system: NCI-H28;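 also: growth inhibition of human NCI-H28 cells, read out as cell viability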
Description: SANGER: Inhibition of human NCI-H28 cell growth in a cell viability assay.

NCI-H2342 = test system: NCI-H2342;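 also: growth inhibition of the cancer cell line, determined with a cell viability assay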
Description: SANGER: Inhibition of human NCI-H2342 cell growth in a cell viability assay.

HCC1419 = test system: HCC1419;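 also: growth inhibition of human HCC1419 cells, read out as cell viability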
Description: SANGER: Inhibition of human HCC1419 cell growth in a cell viability assay.

MKN-28 = test system: MKN-28;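 also: cell viability assay read-out, IC50 reflects suppression of growth of human MKN-28 cells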
Description: SANGER: Inhibition of human MKN28 cell growth in a cell viability assay.

MDA-MB-361 = test system: MDA-MB-361
SAOS-2 = test system: SAOS-2;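 also: growth inhibition of human Saos-2 cells determined by a cell viability assay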
Description: SANGER: Inhibition of human Saos-2 cell growth in a cell viability assay.

EW-22 = test system: EW-22;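 also: growth inhibition of the EW-22 cell line, measured with a cell viability readout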
Description: SANGER: Inhibition of human EW-22 cell growth in a cell viability assay.

CAL-12T = test system: CAL-12T;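 also: growth inhibition of human CAL-12T cells, read out with a cell viability assay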
Description: SANGER: Inhibition of human CAL-12T cell growth in a cell viability assay.

SJRH30 = test system: SJRH30;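 also: growth inhibition of human SJRH30 cells, read out with a cell viability assay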
Description: SANGER: Inhibition of human SJRH30 cell growth in a cell viability assay.

DMS-273 = test system: DMS-273
Description: SANGER: Inhibition of human DMS-273 cell growth in a cell viability assay.

769-P = test system: 769-P
Description: SANGER: Inhibition of human 769-P cell growth in a cell viability assay.

GCT = test system: GCT;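 also: GCT cell line proliferation inhibition, read out with a cell viability assay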
Description: SANGER: Inhibition of human GCT cell growth in a cell viability assay.

786-0 = test system: 786-0
Description: SANGER: Inhibition of human 786-0 cell growth in a cell viability assay.

CAL-51 = test system: CAL-51;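 also: human CAL-51 cell line, growth inhibition read out via a cell viability assay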
Description: SANGER: Inhibition of human CAL-51 cell growth in a cell viability assay.

HCC1569 = test system: HCC1569;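 also: growth inhibition of human HCC1569 cells, read out with a cell viability assay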
Description: SANGER: Inhibition of human HCC1569 cell growth in a cell viability assay.

RT-112 = test system: RT-112
Description: SANGER: Inhibition of human RT-112 cell growth in a cell viability assay.

KYSE-410 = test system: KYSE-410;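 also: growth inhibition of KYSE-410 cells, measured through a cell viability readout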
Description: SANGER: Inhibition of human KYSE-410 cell growth in a cell viability assay.

H-EMC-SS = test system: H-EMC-SS
Description: SANGER: Inhibition of human H-EMC-SS cell growth in a cell viability assay.

RPMI-2650 = test system: RPMI-2650
Description: SANGER: Inhibition of human RPMI-2650 cell growth in a cell viability assay.

NCI-H661 = test system: NCI-H661;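 also: cell viability assay read-out, IC50 being the concentration that inhibits growth of the cells by half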
Description: SANGER: Inhibition of human NCI-H661 cell growth in a cell viability assay.

KNS-62 = test system: KNS-62;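 also: inhibition of cell growth, read out with a cell viability assay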
Description: SANGER: Inhibition of human KNS-62 cell growth in a cell viability assay.

OVCAR-8 = test system: OVCAR-8;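 also: growth inhibition of human OVCAR-8 cells, read out by a cell viability assay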
Description: SANGER: Inhibition of human OVCAR-8 cell growth in a cell viability assay.

RERF-LC-MS = test system: RERF-LC-MS;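 also: growth inhibition of human RERF-LC-MS cells, read out by a cell viability assay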
Description: SANGER: Inhibition of human RERF-LC-MS cell growth in a cell viability assay.

H4 = test system: H4
Description: SANGER: Inhibition of human H4 cell growth in a cell viability assay.

SW1783 = test system: SW1783;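 also: cell growth inhibition measured with a viability assay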
Description: SANGER: Inhibition of human SW1783 cell growth in a cell viability assay.

D-566MG = test system: D-566MG
SW1088 = test system: SW1088;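 also: growth inhibition of human SW1088 cells, read out by a cell viability assay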
Description: SANGER: Inhibition of human SW1088 cell growth in a cell viability assay.

RVH-421 = test system: RVH-421
Description: SANGER: Inhibition of human RVH-421 cell growth in a cell viability assay.

## CC1(C)CNc2cc(NC(=O)c3cccnc3NCc3ccncc3)ccc21 [MOTESANIB]
COLO-741; Homo sapiens, COLO-741
  IC50: > 2 µM
SCC-25; Homo sapiens, SCC-25
  IC50: > 2 µM
HSC-2; Homo sapiens, HSC-2
  IC50: > 2 µM
KYSE-150 cell line; Homo sapiens, KYSE-150
  IC50: > 2 µM
A549; Homo sapiens, A549
  IC50: > 2 µM
ZR-75-30; Homo sapiens, ZR-75-30
  IC50: > 2 µM
SBC-5; Homo sapiens, SBC-5
  IC50: > 2 µM
SCC-9; Homo sapiens, SCC-9
  IC50: > 2 µM
OAW-42; Homo sapiens, OAW-42
  IC50: > 2 µM
HCC1954; Homo sapiens, HCC1954
  IC50: > 2 µM
RMG-I; Homo sapiens, RMG-I
  IC50: > 2 µM
NCI-H28; Homo sapiens, NCI-H28
  IC50: > 2 µM
NCI-H2342; Homo sapiens, NCI-H2342
  IC50: > 2 µM
HCC1419; Homo sapiens, HCC1419
  IC50: > 2 µM
MKN-28; Homo sapiens, MKN-28
  IC50: > 2 µM
MDA-MB-361; Homo sapiens, MDA-MB-361
  IC50: > 2 µM
SAOS-2; Homo sapiens, SAOS-2
  IC50: > 2 µM
EW-22; Homo sapiens, EW-22
  IC50: > 2 µM
CAL-12T; Homo sapiens, CAL-12T
  IC50: > 2 µM
SJRH30; Homo sapiens, SJRH30
  IC50: > 2 µM
DMS-273; Homo sapiens, DMS-273
  IC50: > 2 µM
769-P; Homo sapiens, 769-P
  IC50: > 2 µM
GCT; Homo sapiens, GCT
  IC50: > 2 µM
786-0; Homo sapiens
  IC50: > 2 µM
CAL-51; Homo sapiens, CAL-51
  IC50: > 2 µM
HCC1569; Homo sapiens, HCC1569
  IC50: > 2 µM
RT-112; Homo sapiens, RT-112
  IC50: 1.59 µM
KYSE-410; Homo sapiens, KYSE-410
  IC50: > 2 µM
H-EMC-SS; Homo sapiens, H-EMC-SS
  IC50: > 2 µM
RPMI-2650; Homo sapiens, RPMI-2650
  IC50: > 2 µM
NCI-H661; Homo sapiens, NCI-H661
  IC50: > 2 µM
KNS-62; Homo sapiens, KNS-62
  IC50: > 2 µM
OVCAR-8; Homo sapiens, OVCAR-8
  IC50: > 2 µM
RERF-LC-MS; Homo sapiens, RERF-LC-MS
  IC50: > 2 µM
H4; Homo sapiens, H4
  IC50: > 2 µM
SW1783; Homo sapiens, SW1783
  IC50: > 2 µM
D-566MG; Homo sapiens, D-566MG
  IC50: > 2 µM
SW1088; Homo sapiens, SW1088
  IC50: > 2 µM
RVH-421; Homo sapiens, RVH-421
  IC50: > 2 µM

## CISPLATIN
COLO-741; colo-741
  IC50: 28.7 µM
SCC-25; scc-25
  IC50: 64.6 µM
HSC-2; hsc-2
  IC50: 129 µM
KYSE-150 cell line; kyse-150
  IC50: 411 µM
A549; a549
  IC50: 18.8 µM
ZR-75-30; zr-75-30
  IC50: 72.2 µM
SBC-5; sbc-5
  IC50: 70.1 µM
SCC-9; scc-9
  IC50: 23.6 µM
OAW-42; oaw-42
  IC50: 8.63 µM
HCC1954; hcc1954
  IC50: 1030 µM
RMG-I; rmg-i
  IC50: 1150 µM
NCI-H28; nci-h28
  IC50: 117 µM
NCI-H2342; nci-h2342
  IC50: 53.8 µM
HCC1419; hcc1419
  IC50: 29.5 µM
MKN-28; mkn-28
  IC50: 31.4 µM
MDA-MB-361; mda-mb-361
  IC50: 18.5 µM
SAOS-2; saos-2
  IC50: 36.3 µM
EW-22; ew-22
  IC50: 2.08 µM
CAL-12T; cal-12t
  IC50: 625 µM
SJRH30; sjrh30
  IC50: 98.3 µM
DMS-273; dms-273
  IC50: 9.7 µM
769-P; 769-p
  IC50: 16.2 µM
GCT; gct
  IC50: 6.12 µM
786-0
  IC50: 4.47 µM
CAL-51; cal-51
  IC50: 16.4 µM
HCC1569; hcc1569
  IC50: 455 µM
RT-112; rt-112
  IC50: 14.3 µM
KYSE-410; kyse-410
  IC50: 515 µM
H-EMC-SS; h-emc-ss
  IC50: 21.2 µM
RPMI-2650; rpmi-2650
  IC50: 75.5 µM
NCI-H661; nci-h661
  IC50: 13.6 µM
KNS-62; kns-62
  IC50: 14 µM
OVCAR-8; ovcar-8
  IC50: 19.9 µM
RERF-LC-MS; rerf-lc-ms
  IC50: 418 µM
H4; h4
  IC50: 4.71 µM
SW1783; sw1783
  IC50: 23.3 µM
D-566MG; d-566mg
  IC50: 3.48 µM
SW1088; sw1088
  IC50: 9.7 µM
RVH-421; rvh-421
  IC50: 40.6 µM

## CC(C)c1ccccc1Cc1cc(C(=O)Nc2ccc(S(=O)(=O)c3ccccc3C(C)(C)C)cc2)c(O)c(O)c1O
COLO-741; Homo sapiens, COLO-741
  IC50: 1.37 µM
SCC-25; Homo sapiens, SCC-25
  IC50: 0.523 µM
HSC-2; Homo sapiens, HSC-2
  IC50: 0.664 µM
KYSE-150 cell line; Homo sapiens, KYSE-150
  IC50: 0.465 µM
A549; Homo sapiens, A549
  IC50: 0.0141 µM
ZR-75-30; Homo sapiens, ZR-75-30
  IC50: 1.42 µM
SBC-5; Homo sapiens, SBC-5
  IC50: 0.147 µM
SCC-9; Homo sapiens, SCC-9
  IC50: 0.957 µM
OAW-42; Homo sapiens, OAW-42
  IC50: 0.492 µM
HCC1954; Homo sapiens, HCC1954
  IC50: 0.894 µM
RMG-I; Homo sapiens, RMG-I
  IC50: 0.207 µM
NCI-H28; Homo sapiens, NCI-H28
  IC50: 0.447 µM
NCI-H2342; Homo sapiens, NCI-H2342
  IC50: 0.267 µM
HCC1419; Homo sapiens, HCC1419
  IC50: 0.918 µM
MKN-28; Homo sapiens, MKN-28
  IC50: 1.13 µM
MDA-MB-361; Homo sapiens, MDA-MB-361
  IC50: 0.226 µM
SAOS-2; Homo sapiens, SAOS-2
  IC50: 0.613 µM
EW-22; Homo sapiens, EW-22
  IC50: 0.28 µM
CAL-12T; Homo sapiens, CAL-12T
  IC50: 1.12 µM
SJRH30; Homo sapiens, SJRH30
  IC50: 0.137 µM
DMS-273; Homo sapiens, DMS-273
  IC50: 0.1 µM
769-P; Homo sapiens, 769-P
  IC50: 0.137 µM
GCT; Homo sapiens, GCT
  IC50: 0.191 µM
786-0; Homo sapiens
  IC50: 6.97 µM
CAL-51; Homo sapiens, CAL-51
  IC50: 0.349 µM
HCC1569; Homo sapiens, HCC1569
  IC50: 4.88 µM
RT-112; Homo sapiens, RT-112
  IC50: 0.535 µM
KYSE-410; Homo sapiens, KYSE-410
  IC50: 0.877 µM
H-EMC-SS; Homo sapiens, H-EMC-SS
  IC50: 0.378 µM
RPMI-2650; Homo sapiens, RPMI-2650
  IC50: 0.238 µM
NCI-H661; Homo sapiens, NCI-H661
  IC50: 0.202 µM
KNS-62; Homo sapiens, KNS-62
  IC50: 0.559 µM
OVCAR-8; Homo sapiens, OVCAR-8
  IC50: 0.471 µM
RERF-LC-MS; Homo sapiens, RERF-LC-MS
  IC50: 0.0352 µM
H4; Homo sapiens, H4
  IC50: 0.408 µM
SW1783; Homo sapiens, SW1783
  IC50: 0.213 µM
D-566MG; Homo sapiens, D-566MG
  IC50: 0.116 µM
SW1088; Homo sapiens, SW1088
  IC50: 0.455 µM
RVH-421; Homo sapiens, RVH-421
  IC50: 0.253 µM

Source: ChEMBL document CHEMBL1201861, “Genomics of Drug Sensitity in Cancer screening data, Wellcome Trust Sanger Institute”
